Experimental data reported in patent US20250197377A1, “NOVEL PHARMACEUTICAL SALTS AND POLYMORPHIC FORMS OF AN ERBB AND BTK INHIBITOR” (DIZAL (JIANGSU) PHARMACEUTICAL CO., LTD., priority 2021, published 2025).
pIC50: −log10 of the molar value. Values after ≈ are worked out from the molar mass of the structure shown. Values joined by “and” are separate entries in the source; they are usually repeats but may differ in a detail not shown here. Equal entries are not always repeated. Where two headings read alike, the source gives them in different places.

Legend:
[1] = test system: PC-9; test: In vitro cell based assay, anti-proliferation GI50, PC-9; conditions: Homo sapiens, PC-9, EGFR 19Del
[2] = Water activity study of Form A and Form B (slurry, XRPD); type: physicochemical; conditions: 24~27° C. (before dry)
Description: To study the effects of water on the stability of Form A and Form B, slurry experiments in the systems with different water activity were carried out. Form A or Form B was suspended separately in different water activity systems (Table 4). […] Residual solids were filtered and then dried in the vacuum oven at 45° C. for 8-24 hours. Dry solids were characterized by XRPD.

[3] = target: T1, EGFR H773_V774insNPH (Homo sapiens, UniProt P00533, INS773NPH); test: In vitro cell based assay, PD IC50, Ba/F3_NPH
T1 construct: expressed in transfected cells; host or cells: Ba/F3 (Ba/F3_NPH)
T1 sequence (P00533 with tags, fused parts or gaps INS773NPH): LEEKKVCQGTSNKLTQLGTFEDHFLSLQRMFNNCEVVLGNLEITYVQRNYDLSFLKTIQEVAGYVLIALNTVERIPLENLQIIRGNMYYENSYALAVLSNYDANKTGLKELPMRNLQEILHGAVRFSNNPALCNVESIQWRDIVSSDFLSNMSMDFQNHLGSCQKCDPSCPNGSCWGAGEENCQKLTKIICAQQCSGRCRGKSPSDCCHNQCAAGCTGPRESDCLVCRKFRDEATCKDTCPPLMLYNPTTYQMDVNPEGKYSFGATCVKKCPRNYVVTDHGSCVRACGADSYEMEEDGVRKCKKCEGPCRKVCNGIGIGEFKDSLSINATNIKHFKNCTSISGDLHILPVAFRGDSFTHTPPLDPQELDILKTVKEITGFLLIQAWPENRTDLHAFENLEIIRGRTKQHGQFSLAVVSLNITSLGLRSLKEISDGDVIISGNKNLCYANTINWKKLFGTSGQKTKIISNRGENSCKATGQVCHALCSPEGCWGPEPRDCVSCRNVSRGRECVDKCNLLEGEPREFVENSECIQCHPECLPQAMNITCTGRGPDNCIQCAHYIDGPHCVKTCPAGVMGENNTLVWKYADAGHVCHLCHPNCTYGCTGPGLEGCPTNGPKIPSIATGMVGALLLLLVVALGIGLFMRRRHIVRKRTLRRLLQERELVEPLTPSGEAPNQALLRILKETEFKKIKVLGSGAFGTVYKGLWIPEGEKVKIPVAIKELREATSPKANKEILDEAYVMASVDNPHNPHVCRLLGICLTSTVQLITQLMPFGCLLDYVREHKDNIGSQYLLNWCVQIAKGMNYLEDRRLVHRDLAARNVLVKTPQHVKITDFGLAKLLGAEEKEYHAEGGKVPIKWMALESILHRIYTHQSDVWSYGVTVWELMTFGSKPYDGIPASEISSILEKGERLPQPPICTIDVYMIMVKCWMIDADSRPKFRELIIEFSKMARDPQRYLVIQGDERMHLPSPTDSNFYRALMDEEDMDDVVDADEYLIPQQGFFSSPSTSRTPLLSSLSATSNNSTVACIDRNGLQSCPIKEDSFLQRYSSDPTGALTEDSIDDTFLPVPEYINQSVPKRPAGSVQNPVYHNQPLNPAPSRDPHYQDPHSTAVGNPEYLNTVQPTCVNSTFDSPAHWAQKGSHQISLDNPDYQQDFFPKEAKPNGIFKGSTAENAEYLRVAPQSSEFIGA

[4] = test system: 3T3_YVMA; test: In vitro cell based assay, anti-proliferation GI50, 3T3_YVMA; conditions: HER2 A775_G776insYVMA
[5] = target: T2, EGFR L858R/T790M (Homo sapiens, UniProt P00533, L858R/T790M); test: In vitro cell based assay, PD IC50, NCI-H1975
T2 construct: Form A and B in vitro cell based assay; endogenous in cells; host or cells: NCI-H1975
T2 sequence (P00533 25-1210 T790M/L858R): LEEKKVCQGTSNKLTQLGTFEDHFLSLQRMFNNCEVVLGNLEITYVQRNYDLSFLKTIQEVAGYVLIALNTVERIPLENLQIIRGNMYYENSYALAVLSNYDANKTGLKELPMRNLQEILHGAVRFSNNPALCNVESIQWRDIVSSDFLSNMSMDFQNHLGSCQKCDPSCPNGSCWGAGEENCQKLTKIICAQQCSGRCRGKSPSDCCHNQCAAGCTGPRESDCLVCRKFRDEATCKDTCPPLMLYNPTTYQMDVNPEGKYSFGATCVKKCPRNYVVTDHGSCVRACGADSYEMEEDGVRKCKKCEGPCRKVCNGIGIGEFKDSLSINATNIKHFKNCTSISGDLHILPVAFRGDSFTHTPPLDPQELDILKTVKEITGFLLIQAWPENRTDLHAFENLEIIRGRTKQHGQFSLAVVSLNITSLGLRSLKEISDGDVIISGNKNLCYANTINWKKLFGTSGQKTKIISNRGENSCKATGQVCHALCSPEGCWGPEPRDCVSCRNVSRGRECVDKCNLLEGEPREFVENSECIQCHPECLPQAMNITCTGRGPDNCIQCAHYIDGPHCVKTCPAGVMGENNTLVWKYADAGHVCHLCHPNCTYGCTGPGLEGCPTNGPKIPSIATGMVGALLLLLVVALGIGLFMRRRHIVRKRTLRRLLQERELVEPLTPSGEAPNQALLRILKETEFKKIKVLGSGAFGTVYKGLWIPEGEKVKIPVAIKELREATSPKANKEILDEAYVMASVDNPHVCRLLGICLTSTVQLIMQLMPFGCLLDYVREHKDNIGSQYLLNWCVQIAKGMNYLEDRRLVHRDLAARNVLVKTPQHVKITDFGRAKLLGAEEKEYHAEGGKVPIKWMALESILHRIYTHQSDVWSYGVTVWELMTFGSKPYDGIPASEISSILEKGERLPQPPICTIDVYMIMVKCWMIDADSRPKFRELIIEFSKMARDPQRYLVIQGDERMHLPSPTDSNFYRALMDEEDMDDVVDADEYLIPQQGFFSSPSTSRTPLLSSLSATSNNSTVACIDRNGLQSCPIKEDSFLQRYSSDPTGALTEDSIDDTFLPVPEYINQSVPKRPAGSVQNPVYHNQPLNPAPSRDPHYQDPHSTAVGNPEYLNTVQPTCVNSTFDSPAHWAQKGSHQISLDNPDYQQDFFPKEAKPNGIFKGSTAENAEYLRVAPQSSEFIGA

[6] = target: T3, EGFR Wildtype (Homo sapiens, UniProt P00533); test: In vitro cell based assay, PD IC50, A431
T3 construct: Form A and B in vitro cell based assay; endogenous in cells; host or cells: A431

[7] = target: T4, HER2 A775_G776insYVMA (Homo sapiens, UniProt P04626, INS775YVMA); test: In vitro cell based assay, PD IC50, 3T3_YVMA
T4 construct: expressed in transfected cells; host or cells: 3T3 (3T3_YVMA)
T4 sequence (P04626 with tags, fused parts or gaps INS775YVMA): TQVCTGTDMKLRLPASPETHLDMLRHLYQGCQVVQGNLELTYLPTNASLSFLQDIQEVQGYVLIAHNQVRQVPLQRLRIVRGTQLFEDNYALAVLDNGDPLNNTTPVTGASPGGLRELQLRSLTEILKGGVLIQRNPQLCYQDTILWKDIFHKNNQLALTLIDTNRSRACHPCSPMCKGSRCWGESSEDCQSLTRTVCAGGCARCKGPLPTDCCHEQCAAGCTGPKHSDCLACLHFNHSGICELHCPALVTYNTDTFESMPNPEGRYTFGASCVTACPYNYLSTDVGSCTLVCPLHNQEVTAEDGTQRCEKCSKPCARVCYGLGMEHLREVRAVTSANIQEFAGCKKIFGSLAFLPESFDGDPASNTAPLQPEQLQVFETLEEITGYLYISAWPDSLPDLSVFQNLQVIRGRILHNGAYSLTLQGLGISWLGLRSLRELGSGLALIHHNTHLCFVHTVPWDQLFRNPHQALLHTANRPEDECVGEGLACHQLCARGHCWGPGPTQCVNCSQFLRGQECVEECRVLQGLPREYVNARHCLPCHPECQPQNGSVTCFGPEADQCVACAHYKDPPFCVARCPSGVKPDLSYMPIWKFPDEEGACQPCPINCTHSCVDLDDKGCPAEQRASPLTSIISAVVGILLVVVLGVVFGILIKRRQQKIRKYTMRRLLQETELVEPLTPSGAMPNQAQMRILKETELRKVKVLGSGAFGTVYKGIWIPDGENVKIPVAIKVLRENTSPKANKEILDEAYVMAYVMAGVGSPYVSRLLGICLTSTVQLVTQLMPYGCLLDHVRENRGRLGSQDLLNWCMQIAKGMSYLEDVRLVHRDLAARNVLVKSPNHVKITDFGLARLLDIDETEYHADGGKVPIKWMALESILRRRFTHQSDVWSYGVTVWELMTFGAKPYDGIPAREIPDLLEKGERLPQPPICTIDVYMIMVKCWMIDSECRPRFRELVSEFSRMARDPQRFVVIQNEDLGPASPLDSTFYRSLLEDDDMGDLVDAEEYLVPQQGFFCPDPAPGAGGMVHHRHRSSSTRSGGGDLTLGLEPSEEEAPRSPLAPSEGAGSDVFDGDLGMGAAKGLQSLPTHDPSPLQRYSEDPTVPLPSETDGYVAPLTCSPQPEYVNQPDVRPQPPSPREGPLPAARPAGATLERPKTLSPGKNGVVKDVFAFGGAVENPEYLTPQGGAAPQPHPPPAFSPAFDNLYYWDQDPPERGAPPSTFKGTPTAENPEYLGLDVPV

[8] = PK study of Form A and Form B in Rat; type: in vivo; conditions: rat, in vivo; for AUC(0-t): read-out: Mean AUC0~48; for half-life: read-out: Mean t1/2 (converted); for Tmax: read-out: Median Tmax
[9] = test system: A431; test: In vitro cell based assay, anti-proliferation GI50, A431; conditions: Homo sapiens, A-431, EGFR Wildtype
[10] = Solubility in organic solvents and water; type: physicochemical; conditions: r.t.
[11] = Form A and Form B inter-conversion study (competitive slurry, XRPD); type: physicochemical
Description: Competitive slurry experiments were conducted to evaluate the relative stability of Form A and Form B. Inter-conversion study was performed at room temperature and 50° C. using single and binary solvents listed in the Table 1 below. About 80 mg (100 mg for 50° C.) of Form A and Form B (1:1, w/w) was weighed into sample vials (8 mL) and then 3 mL (2 mL for 50° C.) of solvents were added to each vial. The obtained suspensions were kept stirring for 7 days at room temperature and 50° C., then filtered at specified time. The wet and dried solids were analyzed by XRPD (dried in vacuum oven at 45° C.).
Form B was dominant in tested solvent systems with water activity below 0.15 at room temperature (24˜27° C.). […] Pure Form A and Form B were stable during drying process (50° C., vacuum) for at least 2 days.

[12] = Dynamic moisture sorption analysis (DVS); type: physicochemical
Description: DVS was determined using DVS Advantage-1 or Intrinsic (SMS, UK). The sample was tested at a targeted RH of 10 to 90% full cycle in step mode. The analysis was performed in 10% RH increments. Equilibrium:60 min RH (%) measurement points: First cycle: 0, 10, 20, 30, 40, 50, 60, 70, 80, 90. Second cycle: 90, 80, 70, 60, 50, 40, 30, 20, 10, 0.

[13] = test system: NCI-H1975; test: In vitro cell based assay, anti-proliferation GI50, NCI-H1975; conditions: Homo sapiens, NCI-H1975, EGFR L858R/T790M
[14] = PK study of Form A and Form B in Dog; type: in vivo; conditions: 10 mg/kg
[15] = target: T5, EGFR 19Del (Homo sapiens, UniProt P00533, DEL746-750); test: In vitro cell based assay, PD IC50, PC-9
T5 construct: Form A and B in vitro cell based assay; endogenous in cells; host or cells: PC-9
T5 sequence (P00533 with tags, fused parts or gaps DEL746-750): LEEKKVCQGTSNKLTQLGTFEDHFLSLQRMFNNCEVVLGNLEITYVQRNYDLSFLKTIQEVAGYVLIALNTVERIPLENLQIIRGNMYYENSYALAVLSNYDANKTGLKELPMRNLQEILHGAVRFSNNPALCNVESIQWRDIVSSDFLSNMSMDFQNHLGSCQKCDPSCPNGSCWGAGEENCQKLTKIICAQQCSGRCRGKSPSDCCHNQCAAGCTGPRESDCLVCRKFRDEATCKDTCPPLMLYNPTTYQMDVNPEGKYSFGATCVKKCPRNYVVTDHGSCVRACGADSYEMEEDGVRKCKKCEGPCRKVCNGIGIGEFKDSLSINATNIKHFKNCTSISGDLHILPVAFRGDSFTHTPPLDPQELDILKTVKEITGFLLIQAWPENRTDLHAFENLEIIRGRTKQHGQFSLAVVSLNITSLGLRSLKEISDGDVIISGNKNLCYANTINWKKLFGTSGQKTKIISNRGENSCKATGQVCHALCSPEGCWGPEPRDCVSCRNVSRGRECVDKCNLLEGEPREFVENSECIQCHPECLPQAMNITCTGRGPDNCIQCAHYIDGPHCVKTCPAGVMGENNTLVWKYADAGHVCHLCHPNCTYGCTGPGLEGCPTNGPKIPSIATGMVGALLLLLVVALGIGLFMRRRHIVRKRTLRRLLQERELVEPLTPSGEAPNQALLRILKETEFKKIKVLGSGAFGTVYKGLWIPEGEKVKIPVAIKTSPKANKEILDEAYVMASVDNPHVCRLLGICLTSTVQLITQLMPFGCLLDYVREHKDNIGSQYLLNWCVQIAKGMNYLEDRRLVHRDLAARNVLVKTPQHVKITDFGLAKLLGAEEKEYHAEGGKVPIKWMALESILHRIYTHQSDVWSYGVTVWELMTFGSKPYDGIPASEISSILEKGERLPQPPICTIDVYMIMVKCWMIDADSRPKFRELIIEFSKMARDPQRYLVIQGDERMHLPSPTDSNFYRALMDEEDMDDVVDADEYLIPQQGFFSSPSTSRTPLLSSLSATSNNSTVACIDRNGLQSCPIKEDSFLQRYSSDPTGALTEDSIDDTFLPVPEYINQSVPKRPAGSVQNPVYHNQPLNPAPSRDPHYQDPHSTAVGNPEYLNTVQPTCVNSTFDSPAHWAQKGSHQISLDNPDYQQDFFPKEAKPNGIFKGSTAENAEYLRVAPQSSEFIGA

[16] = Solubility in bio-relevant media; type: physicochemical
[17] = test system: Ba/F3_NPH; test: In vitro cell based assay, anti-proliferation GI50, Ba/F3_NPH; conditions: EGFR H773_V774insNPH

For `C=CC(=O)Nc1cc(Nc2nccc(Nc3cc(Cl)c(F)cc3C(C)(C)O)n2)c(OC)cc1N1CC[C@@H](N(C)C)C1` [Form A, (R)-N-(5-((4-((5-chloro-4-fluoro-2-(2-hydroxypropan-2-yl)phenyl)amino)pyrimidin-2-yl)amino)-2-(3-(dimethylamino)pyrrolidin-1-yl)-4-methoxyphenyl)acrylamide], the GI50 [1] was 4.76 nM, the “XRPD results of slurry in different water activity solvent” value ([2]; 0% water/acetone, water activity 0, 1 d) was “Form A” and the “XRPD results of slurry in different water activity solvent” value ([2]; 0% water/acetone, water activity 0, 3 d) was “Form A”. For the same compound, the “XRPD results of slurry in different water activity solvent” value ([2]; 0% water/acetone, water activity 0, 7 d) was “Form A + B”, the “XRPD results of slurry in different water activity solvent” value ([2]; 3% water/acetone, water activity 0.312, 3 d) was “Form A” and the “XRPD results of slurry in different water activity solvent” value ([2]; 3% water/acetone, water activity 0.312, 7 d) was “Form A + B”. The “XRPD results of slurry in different water activity solvent” value ([2]; 30% water/acetone, water activity 0.747, 1 d) was “Form A”, the “XRPD results of slurry in different water activity solvent” value ([2]; 30% water/acetone, water activity 0.747, 3 d) was “Form A” and the “XRPD results of slurry in different water activity solvent” value ([2]; 30% water/acetone, water activity 0.747, 7 d) was “Form A + B”. The “XRPD results of slurry in different water activity solvent” value ([2]; water, 7 d) was “Form A”, the pIC50 [3] was 7.49 and the GI50 [4] was 44.3 nM. For the same compound, the pIC50 [5] was 8.68, the pIC50 [6] was 7.37 and the pIC50 [7] was 8.42. For the same compound, the Cmax ([8]; 25 mg/kg) was 199 ng/mL, the AUC(0-t) ([8]; 25 mg/kg) was 2130 ng·h/mL and the half-life ([8]; 25 mg/kg) was 4.4 h. For the same compound, the Tmax ([8]; 25 mg/kg) was 4 h, the Cmax ([8]; 75 mg/kg) was 506 ng/mL and the AUC(0-t) ([8]; 75 mg/kg) was 6870 ng·h/mL. For the same compound, the half-life ([8]; 75 mg/kg) was 6 h, the Tmax ([8]; 75 mg/kg) was 4 h and the GI50 [9] was 42.2 nM. For the same compound, the Solubility ([10]; Acetonitrile) was “S < 2.14 mg/ml”, the Solubility ([10]; EtOH, organic solvent or mixture, EtOH, read-out: Solubility) was 13400 to 17800 µg/mL (≈ 22.9 to 30.5 mM) and the Solubility ([10]; Ethyl acetate) was “S < 2.16 mg/ml”. It also gave a Solubility ([10]; MTBE, organic solvent or mixture, MTBE, read-out: Solubility) of less than 1820 µg/mL, a Solubility ([10]; MeOH, organic solvent or mixture, MeOH, read-out: Solubility) of 24800 to 49500 µg/mL (≈ 42.4 to 84.7 mM) and a Solubility ([10]; THF, organic solvent or mixture, THF, read-out: Solubility) of 17200 to 25800 µg/mL (≈ 29.4 to 44.1 mM). It also gave a Solubility ([10]; acetone, organic solvent or mixture, Acetone, read-out: Solubility) of 5120 to 5690 µg/mL (≈ 8.77 to 9.74 mM), a Solubility ([10]; isopropanol, organic solvent or mixture, Isopropanol, read-out: Solubility) of 4450 to 4940 µg/mL (≈ 7.62 to 8.46 mM) and a Solubility ([10]; water, read-out: Solubility) of less than 2040 µg/mL. For the same compound, the “Stability of pure form during drying process” value ([11]; 50° C., vacuum, at least 2 days) was “stable”, the “Form change during the drying process” value ([11]; mixture of Form A and Form B) was “converted into Form B” and the “DVS (ΔW %, 80% RH)” value [12] was 0.63%. For the same compound, the GI50 [13] was 2.22 nM, the AUC0-24 h ([14]; Female (individual animals)) was 2.30 hr*μM/(mg/kg) and 1.80 hr*μM/(mg/kg) and the AUC0-24 h ([14]; Male (individual animals)) was 3.47 hr*μM/(mg/kg) and 5.47 hr*μM/(mg/kg). It also gave a pIC50 [15] of 8.67, a Solubility ([16]; FaSSIF, 0.5 h) of 170 µg/mL (≈ 0.291 mM) and a Solubility ([16]; FaSSIF, 2 h) of 190 µg/mL (≈ 0.325 mM). It also gave a Solubility ([16]; FaSSIF, 24 h) of 260 µg/mL (≈ 0.445 mM), a Solubility ([16]; FeSSIF, 0.5 h) of 4600 µg/mL (≈ 7.88 mM) and a Solubility ([16]; FeSSIF, 2 h) of 6880 µg/mL (≈ 11.8 mM). For the same compound, the Solubility ([16]; FeSSIF, 24 h) was 11640 µg/mL (≈ 19.9 mM), the Solubility ([16]; SGF, 0.5 h) was 23120 µg/mL (≈ 39.6 mM) and the Solubility ([16]; SGF, 2 h) was 24350 µg/mL (≈ 41.7 mM). The Solubility ([16]; SGF, 24 h) was 24410 µg/mL (≈ 41.8 mM), the Solubility ([16]; SIF, 0.5 h) was 29 µg/mL (≈ 0.0496 mM) and the Solubility ([16]; SIF, 2 h) was 40 µg/mL (≈ 0.0685 mM). It also gave a Solubility ([16]; SIF, 24 h) of 40 µg/mL (≈ 0.0685 mM) and a GI50 [17] of 58.2 nM.
